Results on one molecule are retold here after ChEMBL document CHEMBL5625278 (Bioorg Med Chem Lett, 2024).

pKi: −log10 of the molar value.

This assay can be described thus: Binding affinity to LAR C1536S mutant (unknown origin) assessed as inhibition constant by Michaelis-Menten analysis. On the set-up: species or system Homo sapiens.

Usually pKi stands for −log10 of the Ki, conventionally taken in molar units. For the molecule `CC1(C)Cc2c(O)c(C=O)c3c(c2C1)C(=O)OC(O)C3` (stereo unspecified) [ILLUDALIC ACID], the pKi was 5.15.
